Measurements published in patent publication US9637491B2, “Pyrazolo[4,3-D]pyrimidines as kinase inhibitors” (Origenis GmbH, priority 2012, dated 2017).

Target: T1, SYK kinase (Homo sapiens, UniProt P43405)
T1 construct: purchased Invitrogen, Carlsbad
Experiment: SYK assay (OMNIA Kinase Assay, Invitrogen)
Assay type: biochemical
Details: SYK Activities; 1 mM ATP, 10 μM Omnia Peptide Substrate Tyr 7, 30° C.
Method: In the assay OMNIA® KINASE ASSAY by Invitrogen Corporation (Carlsbad) the effect of invention of a compound on the phosphorylation is determined by measurement of fluorescence intensity of a chelation-enhanced fluorophore called SOX. Upon phosphorylation of the peptide by the kinase of interest, Mg2+ is chelated to form a bridge between the SOX moiety and the phosphate group that is transferred to the specific tyrosine on the peptide. The fluorescence intensity is directly proportional to the amount of peptide phosphorylation.
To the wells of an 384 well small volume plate (Greiner, Frickenhausen) are added (i) the compound under test in 5% DMSO/distilled water (2 μl), (ii) 16 μl of the master mix containing ATP, DTT, Kinase Reaction Buffer, Omina Peptide Substrate Tyr 7 resulting in a final concentration of 1 mM ATP, 0.2 mM DTT and 10 μM Peptide Substrate. The Master Mix and the assay plate was incubated to reaction temperature before the measurement (30° C.). The reaction was started with addition of (iii) 2 μl 4 μg/ml SYK kinase (Invitrogen, Carlsbad). During measurement fluorescence intensitiy readings were collected using a TECAN M1000 at a wavelength of λex 360/λem 485 nm every 30 s for 30 minutes. The reaction velocity was plotted versus the inhibitor concentration to determine the IC50 using XLFit 5.0 (IDBS, Guildford) to fit to a sigmoidal dose response curve.

Compound | IC50
CC(C)Cn1cc(-c2nc(Nc3ccc(N4CCOCC4)cc3)c3[nH]ncc3n2)cn1 [Example 383, 5-(1-isobutyl-1H-pyrazol-4-yl)-N-(4-morpholinophenyl)-1H-pyrazolo[4,3-d]pyrimidin-7-amine] | 0.1 to 1 µM
OC1CCN(c2ccc(Nc3nc(-c4ccco4)nc4cn[nH]c34)cc2)CC1 [Example 450, 1-(4-((5-(furan-2-yl)-1H-pyrazolo[4,3-d]pyrimidin-7-yl)amino)phenyl)piperidin-4-ol] | 0.01 to 0.1 µM
c1nn(C2CCOCC2)cc1Nc1nc(-c2nc3c(s2)CCCC3)nc2cn[nH]c12 [Example 496, N-(1-(tetrahydro-2H-pyran-4-yl)-1H-pyrazol-4-yl)-5-(4,5,6,7-tetrahydrobenzo[d]thiazol-2-yl)-1H-pyrazolo[4,3-d]pyrimidin-7-amine] | 0.01 to 0.1 µM
c1nn(C2CCOCC2)cc1Nc1nc(-c2ccc3[nH]ncc3c2)nc2cn[nH]c12 [Example 178, 5-(1H-indazol-5-yl)-N-(1-(tetrahydro-2H-pyran-4-yl)-1H-pyrazol-4-yl)-1H-pyrazolo[4,3-d]pyrimidin-7-amine] | 0.01 to 0.1 µM
c1cc(N2CCOCC2)ccc1Nc1nc(C2CCC2)nc2cn[nH]c12 [Example 120, 5-cyclobutyl-N-(4-morpholinophenyl)-1H-pyrazolo[4,3-d]pyrimidin-7-amine] | < 0.01 µM
CC(C)(C)N1CCN(c2ccc(Nc3nc(-c4cccc(NS(C)(=O)=O)c4)nc4cn[nH]c34)cc2)CC1 [Example 39] | 0.1 to 1 µM
NS(=O)(=O)c1cccc(-c2nc(Nc3cnn(C4CCOCC4)c3)c3[nH]ncc3n2)c1 [Example 425, 3-(7-((1-(tetrahydro-2H-pyran-4-yl)-1H-pyrazol-4-yl)amino)-1H-pyrazolo[4,3-d]pyrimidin-5-yl)benzenesulfonamide] | 0.01 to 0.1 µM
OCCN1CCN(c2ccc(Nc3nc(-c4ccc5cn[nH]c5c4)nc4cn[nH]c34)cc2)CC1 [Example 422, 2-(4-(4-((5-(1H-indazol-6-yl)-1H-pyrazolo[4,3-d]pyrimidin-7-yl)amino)phenyl)piperazin-1-yl)ethan-1-ol] | 0.01 to 0.1 µM
CN(C)C(=O)Cn1cc(Nc2nc(C3CCC3)nc3cn[nH]c23)cn1 [Example 461, 2-(4-((5-cyclobutyl-1H-pyrazolo[4,3-d]pyrimidin-7-yl)amino)-1H-pyrazol-1-yl)-N,N-dimethylacetamide] | 0.1 to 1 µM
COCCCn1cc(Nc2nc(-c3ccc4cn[nH]c4c3)nc3cn[nH]c23)cn1 [Example 419, 5-(1H-indazol-6-yl)-N-(1-(3-methoxypropyl)-1H-pyrazol-4-yl)-1H-pyrazolo[4,3-d]pyrimidin-7-amine] | 0.01 to 0.1 µM
COc1cc(Nc2nc(-c3c(C)cccc3F)nc3cn[nH]c23)ccc1N1CCOCC1 [Example 481, 5-(2-fluoro-6-methylphenyl)-N-(3-methoxy-4-morpholinophenyl)-1H-pyrazolo[4,3-d]pyrimidin-7-amine] | 0.1 to 1 µM
CN1CCC(n2cc(Nc3nc(-c4ccoc4)nc4cn[nH]c34)cn2)CC1 [Example 202, 5-(furan-3-yl)-N-(1-(1-methylpiperidin-4-yl)-1H-pyrazol-4-yl)-1H-pyrazolo[4,3-d]pyrimidin-7-amine] | < 0.01 µM
c1coc(-c2nc(Nc3cnn(C4CC4)c3)c3[nH]ncc3n2)c1 [Example 278, N-(1-cyclopropyl-1H-pyrazol-4-yl)-5-(furan-2-yl)-1H-pyrazolo[4,3-d]pyrimidin-7-amine] | 0.01 to 0.1 µM
c1nc(-c2nc(Nc3cnn(C4CCOCC4)c3)c3[nH]ncc3n2)co1 [Example 127, 5-(oxazol-4-yl)-N-(1-(tetrahydro-2H-pyran-4-yl)-1H-pyrazol-4-yl)-1H-pyrazolo[4,3-d]pyrimidin-7-amine] | 0.1 to 1 µM
COc1cc(Nc2nc(-c3ccno3)nc3cn[nH]c23)ccc1N1CCOCC1 [Example 71, 5-(isoxazol-5-yl)-N-(3-methoxy-4-morpholinophenyl)-1H-pyrazolo[4,3-d]pyrimidin-7-amine] | 0.1 to 1 µM
CC(C)(C#N)n1cc(Nc2nc(-c3ccco3)nc3cn[nH]c23)cn1 [Example 211, 2-(4-((5-(furan-2-yl)-1H-pyrazolo[4,3-d]pyrimidin-7-yl)amino)-1H-pyrazol-1-yl)-2-methylpropanenitrile] | 0.1 to 1 µM
COc1cc(Nc2nc(-c3cccs3)nc3cn[nH]c23)ccc1N1CCOCC1 [Example 37, N-(3-methoxy-4-morpholinophenyl)-5-(thiophen-2-yl)-1H-pyrazolo[4,3-d]pyrimidin-7-amine] | 0.1 to 1 µM
Fc1cc(Nc2nc(-c3ccon3)nc3cn[nH]c23)ccc1N1CCOCC1 [Example 75, N-(3-fluoro-4-morpholinophenyl)-5-(isoxazol-3-yl)-1H-pyrazolo[4,3-d]pyrimidin-7-amine] | 0.1 to 1 µM

Compound | IC50
CC(C)n1cc(Nc2nc(-c3ccc4cn[nH]c4c3)nc3cn[nH]c23)cn1 [Example 414, 5-(1H-indazol-6-yl)-N-(1-isopropyl-1H-pyrazol-4-yl)-1H-pyrazolo[4,3-d]pyrimidin-7-amine] | 0.01 to 0.1 µM
CN1CCC(n2cc(Nc3nc(C4CC4)nc4cn[nH]c34)cn2)CC1 [Example 207, 5-cyclopropyl-N-(1-(1-methylpiperidin-4-yl)-1H-pyrazol-4-yl)-1H-pyrazolo[4,3-d]pyrimidin-7-amine] | 0.01 to 0.1 µM
CC(C)(C#N)n1cc(Nc2nc(C3CC3)nc3cn[nH]c23)cn1 [Example 177, 2-(4-((5-cyclopropyl-1H-pyrazolo[4,3-d]pyrimidin-7-yl)amino)-1H-pyrazol-1-yl)-2-methylpropanenitrile] | 0.1 to 1 µM
c1coc(-c2nc(Nc3ccc(N4CCOCC4)cc3)c3[nH]ncc3n2)c1 [Example 86, 5-(furan-2-yl)-N-(4-morpholinophenyl)-1H-pyrazolo[4,3-d]pyrimidin-7-amine] | 0.01 to 0.1 µM
CC(=O)N1CCN(c2ccc(Nc3nc(C4CC4)nc4cn[nH]c34)cn2)CC1 [Example 237, 1-(4-(5-((5-cyclopropyl-1H-pyrazolo[4,3-d]pyrimidin-7-yl)amino)pyridin-2-yl)piperazin-1-yl)ethan-1-one] | 0.01 to 0.1 µM
CN1CCC(n2cc(Nc3nc(-c4nc5ccccc5s4)nc4cn[nH]c34)cn2)CC1 [Example 459, 5-(benzo[d]thiazol-2-yl)-N-(1-(1-methylpiperidin-4-yl)-1H-pyrazol-4-yl)-1H-pyrazolo[4,3-d]pyrimidin-7-amine] | 0.01 to 0.1 µM
COCC(COC)n1cc(Nc2nc(-c3ccco3)nc3cn[nH]c23)cn1 [Example 455, N-(1-(1,3-dimethoxypropan-2-yl)-1H-pyrazol-4-yl)-5-(furan-2-yl)-1H-pyrazolo[4,3-d]pyrimidin-7-amine] | 0.1 to 1 µM
COCCCn1cc(Nc2nc(-c3cccc(OC)c3)nc3cn[nH]c23)cn1 [Example 408, 5-(3-methoxyphenyl)-N-(1-(3-methoxypropyl)-1H-pyrazol-4-yl)-1H-pyrazolo[4,3-d]pyrimidin-7-amine] | 0.01 to 0.1 µM
COc1ccc(Nc2nc(-c3cccc(C(=O)Nc4ccc(-c5cnco5)cc4)c3)nc3cn[nH]c23)cc1OC [Example 319, 3-(7-((3,4-dimethoxyphenyl)amino)-1H-pyrazolo[4,3-d]pyrimidin-5-yl)-N-(4-(oxazol-5-yl)phenyl)benzamide] | 0.1 to 1 µM
CC(C)n1cc(Nc2nc(C3CC3)nc3cn[nH]c23)cn1 [Example 229, 5-cyclopropyl-N-(1-isopropyl-1H-pyrazol-4-yl)-1H-pyrazolo[4,3-d]pyrimidin-7-amine] | < 0.01 µM
O=C(c1ccc(Nc2nc(C3CCC3)nc3cn[nH]c23)cc1F)N1CCOCC1 [Example 193, (4-((5-cyclobutyl-1H-pyrazolo[4,3-d]pyrimidin-7-yl)amino)-2-fluorophenyl)(morpholino)methanone] | 0.1 to 1 µM
CC(=O)N1CCN(c2ccc(Nc3nc(C4CCC4)nc4cn[nH]c34)cc2)CC1 [Example 192, 1-(4-(4-((5-cyclobutyl-1H-pyrazolo[4,3-d]pyrimidin-7-yl)amino)phenyl)piperazin-1-yl)ethan-1-one] | < 0.01 µM
c1nn(C2CC2)cc1Nc1nc(C2CCC2)nc2cn[nH]c12 [Example 267, 5-cyclobutyl-N-(1-cyclopropyl-1H-pyrazol-4-yl)-1H-pyrazolo[4,3-d]pyrimidin-7-amine] | 0.01 to 0.1 µM
COc1ccc(Nc2nc(-c3ccc(C)s3)nc3cn[nH]c23)cc1OC [Example 8, N-(3,4-dimethoxyphenyl)-5-(5-methylthiophen-2-yl)-1H-pyrazolo[4,3-d]pyrimidin-7-amine] | 0.1 to 1 µM
CS(=O)(=O)Nc1cccc(-c2nc(Nc3cnn(C4CCOCC4)c3)c3[nH]ncc3n2)c1 [Example 263, N-(3-(7-((1-(tetrahydro-2H-pyran-4-yl)-1H-pyrazol-4-yl)amino)-1H-pyrazolo[4,3-d]pyrimidin-5-yl)phenyl)methanesulfonamide] | 0.1 to 1 µM
CC(=O)N1CCN(c2ccc(Nc3nc(C4CC4C)nc4cn[nH]c34)cc2)CC1 (centres unmarked) [Example 102, 1-(4-(4-((5-(2-methylcyclopropyl)-1H-pyrazolo[4,3-d]pyrimidin-7-yl)amino)phenyl)piperazin-1-yl)ethan-1-one] | 0.1 to 1 µM
CC(C)(C)n1cc(Nc2nc(C3CCC3)nc3cn[nH]c23)cn1 [Example 222, N-(1-(tert-butyl)-1H-pyrazol-4-yl)-5-cyclobutyl-1H-pyrazolo[4,3-d]pyrimidin-7-amine] | 0.01 to 0.1 µM
